In patent publication US12447153B2, “HER2 mutation inhibitors” (Array BioPharma Inc., priority 2021, dated 2025):

How the values were obtained:
EGFR = EGFR (Homo sapiens (Human), UniProt P00533); assay: ErbB Enzyme Assay (HTRF KinEASE-TK), Assay 3; assay type: biochemical; conditions: EGFR enzyme assay
BCRP = BCRP (Homo sapiens (Human), UniProt Q9UNQ0); assay: BCRP MDCKII efflux assay (Assay 7); assay type: in vitro ADME; conditions: dog; efflux ratio Papp(B-A)/Papp(A-B), BCRP MDCKII cells; read-out: Assay 7 Pe Ratio
Description: Assay conditions included with and without the BCRP-specific inhibitor, KO143, at a concentration of 0.3 μM to ascertain the contribution of BCRP to the efflux value of the test compound.
Final organic concentration in the assay was 1%.

EGFR wild type (EGFR WT) = EGFR wild type (EGFR WT) (Homo sapiens (Human), UniProt P00533); assay: Cellular Phosphorylation Assay, Assay 5 (EGF-stimulated EGFR phosphorylation, NIH 3T3 cells); assay type: cell-based; conditions: cellular EGFR WT phosphorylation, EGF-stimulated
Sequence of EGFR wild type (EGFR WT) (P00533 25-1210): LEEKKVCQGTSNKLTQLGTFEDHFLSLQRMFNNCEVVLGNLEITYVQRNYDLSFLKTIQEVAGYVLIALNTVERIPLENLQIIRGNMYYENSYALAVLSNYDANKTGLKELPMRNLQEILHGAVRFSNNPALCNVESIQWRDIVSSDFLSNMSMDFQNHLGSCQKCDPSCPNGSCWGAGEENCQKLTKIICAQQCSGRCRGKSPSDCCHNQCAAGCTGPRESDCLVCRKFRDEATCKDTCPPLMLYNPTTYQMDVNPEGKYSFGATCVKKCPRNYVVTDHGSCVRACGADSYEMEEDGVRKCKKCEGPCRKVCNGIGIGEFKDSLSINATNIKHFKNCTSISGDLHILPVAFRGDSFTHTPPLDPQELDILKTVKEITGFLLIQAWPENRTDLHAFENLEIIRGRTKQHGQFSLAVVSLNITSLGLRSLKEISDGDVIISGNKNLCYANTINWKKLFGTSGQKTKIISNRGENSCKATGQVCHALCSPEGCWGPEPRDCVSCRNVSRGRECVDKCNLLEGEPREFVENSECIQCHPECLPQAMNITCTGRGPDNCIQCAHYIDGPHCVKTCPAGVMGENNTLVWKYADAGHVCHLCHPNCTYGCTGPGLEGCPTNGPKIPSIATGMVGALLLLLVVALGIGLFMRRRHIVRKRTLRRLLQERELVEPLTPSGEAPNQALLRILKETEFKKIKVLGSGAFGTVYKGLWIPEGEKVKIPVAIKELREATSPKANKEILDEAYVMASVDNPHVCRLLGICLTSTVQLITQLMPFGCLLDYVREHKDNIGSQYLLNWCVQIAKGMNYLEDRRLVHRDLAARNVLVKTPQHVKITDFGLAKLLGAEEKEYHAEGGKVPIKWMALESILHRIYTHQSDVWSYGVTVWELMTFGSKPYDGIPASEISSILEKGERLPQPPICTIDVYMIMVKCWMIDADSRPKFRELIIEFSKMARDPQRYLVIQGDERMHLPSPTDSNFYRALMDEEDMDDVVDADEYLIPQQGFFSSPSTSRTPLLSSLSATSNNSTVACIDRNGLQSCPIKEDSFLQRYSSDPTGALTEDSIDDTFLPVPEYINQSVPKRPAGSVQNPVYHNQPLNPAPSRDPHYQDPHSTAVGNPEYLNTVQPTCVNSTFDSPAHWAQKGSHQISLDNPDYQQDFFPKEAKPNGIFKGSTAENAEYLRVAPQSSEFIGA

ErbB2 WT = ErbB2 WT (Homo sapiens (Human), UniProt P04626); assay: ErbB Enzyme Assay (HTRF KinEASE-TK), Assay 2; assay type: biochemical; conditions: ErbB2 WT enzyme assay
Sequence of ErbB2 WT (P04626 23-1255): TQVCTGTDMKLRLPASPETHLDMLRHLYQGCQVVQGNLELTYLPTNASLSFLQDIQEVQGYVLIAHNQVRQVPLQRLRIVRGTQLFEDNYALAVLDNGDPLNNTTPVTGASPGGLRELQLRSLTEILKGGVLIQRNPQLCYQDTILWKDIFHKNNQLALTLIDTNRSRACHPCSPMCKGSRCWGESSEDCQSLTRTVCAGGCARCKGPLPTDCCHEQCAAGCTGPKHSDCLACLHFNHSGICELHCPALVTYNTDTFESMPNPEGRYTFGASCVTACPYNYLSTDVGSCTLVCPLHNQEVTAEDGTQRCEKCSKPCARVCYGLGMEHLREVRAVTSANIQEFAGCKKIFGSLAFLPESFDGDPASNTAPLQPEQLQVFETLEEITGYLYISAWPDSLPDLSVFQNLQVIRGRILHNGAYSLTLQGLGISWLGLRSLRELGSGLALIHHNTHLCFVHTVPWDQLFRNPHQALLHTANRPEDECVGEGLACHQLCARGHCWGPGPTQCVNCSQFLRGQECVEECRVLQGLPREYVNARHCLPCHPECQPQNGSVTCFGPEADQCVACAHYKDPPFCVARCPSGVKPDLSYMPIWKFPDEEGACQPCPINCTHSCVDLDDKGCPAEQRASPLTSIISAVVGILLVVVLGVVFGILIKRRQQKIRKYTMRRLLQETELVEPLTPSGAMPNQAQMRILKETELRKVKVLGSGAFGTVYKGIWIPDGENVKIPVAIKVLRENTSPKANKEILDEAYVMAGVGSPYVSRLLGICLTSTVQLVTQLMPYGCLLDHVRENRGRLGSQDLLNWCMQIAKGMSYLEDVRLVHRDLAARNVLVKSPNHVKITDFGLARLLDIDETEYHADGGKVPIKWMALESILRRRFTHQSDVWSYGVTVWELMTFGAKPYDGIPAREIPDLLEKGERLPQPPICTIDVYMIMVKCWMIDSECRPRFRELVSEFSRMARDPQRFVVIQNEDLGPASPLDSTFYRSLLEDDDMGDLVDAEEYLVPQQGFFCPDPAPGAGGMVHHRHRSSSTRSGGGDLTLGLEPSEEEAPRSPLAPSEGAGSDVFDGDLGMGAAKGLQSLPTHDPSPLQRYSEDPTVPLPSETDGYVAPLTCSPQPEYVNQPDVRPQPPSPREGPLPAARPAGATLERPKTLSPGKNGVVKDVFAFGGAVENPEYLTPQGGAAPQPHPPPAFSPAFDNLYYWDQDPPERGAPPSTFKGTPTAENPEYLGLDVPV

[1] = target: ErbB2 with Exon 20 YVMA insertion (HER2-YVMA) (Homo sapiens (Human), UniProt P04626, INS775YVMA); assay: Cellular Phosphorylation Assay, Assay 4 (constitutive ErbB2 phosphorylation, NIH 3T3 cells); assay type: cell-based; conditions: cellular ErbB2 YVMA phosphorylation
Sequence of ErbB2 with Exon 20 YVMA insertion (HER2-YVMA) (P04626 other isoform, or with tags, fused parts or gaps ins YVMA behind 775): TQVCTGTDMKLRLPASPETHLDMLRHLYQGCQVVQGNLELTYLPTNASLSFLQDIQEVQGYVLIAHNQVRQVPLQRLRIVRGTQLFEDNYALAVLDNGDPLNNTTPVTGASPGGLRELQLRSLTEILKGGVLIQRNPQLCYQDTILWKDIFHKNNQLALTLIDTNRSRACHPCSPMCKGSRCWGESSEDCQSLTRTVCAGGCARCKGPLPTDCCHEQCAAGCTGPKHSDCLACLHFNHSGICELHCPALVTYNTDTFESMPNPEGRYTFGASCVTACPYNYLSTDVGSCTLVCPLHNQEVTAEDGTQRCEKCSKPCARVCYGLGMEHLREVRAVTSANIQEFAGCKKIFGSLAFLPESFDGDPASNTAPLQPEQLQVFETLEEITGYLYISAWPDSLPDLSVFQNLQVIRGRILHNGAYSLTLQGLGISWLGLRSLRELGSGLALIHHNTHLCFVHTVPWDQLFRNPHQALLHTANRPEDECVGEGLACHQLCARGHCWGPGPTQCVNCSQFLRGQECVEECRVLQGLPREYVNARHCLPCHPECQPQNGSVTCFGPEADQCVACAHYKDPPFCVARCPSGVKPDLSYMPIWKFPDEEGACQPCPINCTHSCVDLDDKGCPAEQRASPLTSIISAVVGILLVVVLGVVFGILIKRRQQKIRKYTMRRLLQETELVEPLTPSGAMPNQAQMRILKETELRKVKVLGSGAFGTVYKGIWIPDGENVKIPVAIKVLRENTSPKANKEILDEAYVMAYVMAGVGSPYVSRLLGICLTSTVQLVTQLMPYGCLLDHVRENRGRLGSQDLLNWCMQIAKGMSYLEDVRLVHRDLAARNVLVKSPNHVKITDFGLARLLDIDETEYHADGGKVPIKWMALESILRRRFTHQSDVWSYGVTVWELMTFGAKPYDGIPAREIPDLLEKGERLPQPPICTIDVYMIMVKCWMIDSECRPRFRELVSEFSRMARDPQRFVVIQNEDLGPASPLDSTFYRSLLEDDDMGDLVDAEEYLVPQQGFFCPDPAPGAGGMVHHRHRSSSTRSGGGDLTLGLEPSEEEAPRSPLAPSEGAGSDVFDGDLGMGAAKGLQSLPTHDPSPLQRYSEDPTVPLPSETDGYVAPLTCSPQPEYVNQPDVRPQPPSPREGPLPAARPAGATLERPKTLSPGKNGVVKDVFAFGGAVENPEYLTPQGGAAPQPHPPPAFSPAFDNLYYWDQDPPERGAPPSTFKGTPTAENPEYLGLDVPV

Sequence of EGFR (P00533 25-1210): as the sequence (P00533 25-1210) above

Row | Compound | IC50 (EGFR) | efflux ratio at 2 h, 1 µM (BCRP) | IC50 (EGFR wild type (EGFR WT)) | IC50 (ErbB2 WT) | IC50 [1]
1 | C=CC(=O)N1CC[C@H]2C[C@H](c3ccc4ncnc(Nc5ccc(Oc6ccn7ncnc7c6)c(C)c5)c4n3)C[C@H]21 [Example 383] | 979 nM | 9.5 | 488 nM | 12.5 nM | 17.5 nM
2 | C=CC(=O)N1C[C@H]2C[C@@H]1[C@H](c1ccc3ncnc(Nc4ccc(Oc5ccn6ncnc6c5)c(C)c4)c3n1)C2 [Example 405] | 1640 nM | 13.7 | 4550 nM | 19.5 nM | 17.2 nM
3 | C=CC(=O)N1C[C@H]2C[C@@H]1[C@H](c1ccc3ncnc(Nc4ccc(Oc5cnc6c(c5)ncn6C)c(C)c4)c3n1)C2 [Example 407] | 1510 nM | 16 | ≥ 5000 nM | 38 nM | 20.4 nM
4 | C=CC(=O)N1C[C@H]2CC[C@@H]1C[C@@H]2c1ccc2ncnc(Nc3cc(C)c(Oc4cnc5c(c4)ncn5C)cc3F)c2n1 [Example 420] | ≥ 10000 nM | 2.5 | ≥ 5000 nM | 289 nM | 33.8 nM
5 | C=CC(=O)N1C2CCC1CN(c1ccc3ncnc(Nc4cc(Cl)c(Oc5ccn6ncnc6c5)cc4F)c3n1)C2 [Example 434] | 1230 nM | 13.6 | 3490 nM | 20.8 nM | 9.8 nM
6 | C=CC(=O)N1CCN(c2ccc3ncnc(Nc4ccc(Oc5cnc6c(c5)ncn6C)c(C)c4F)c3n2)C[C@@H]1C [Example 437] | 9730 nM | 9.3 | 4910 nM | 148 nM | 18.6 nM
7 | C=CC(=O)N1CC2CCC(C1)N2c1ccc2ncnc(Nc3cc(Cl)c(Oc4ccn5ncnc5c4)cc3F)c2n1 [Example 441] | 682 nM | 7.3 | 770 nM | 31.1 nM | 17.8 nM
8 | C=CC(=O)N1C2CCC1CN(c1ccc3ncnc(Nc4cc(C)c(Oc5ccn6ncnc6c5)cc4F)c3n1)C2 [Example 443] | 4150 nM | 10 | 2820 nM | 90.6 nM | 25.5 nM
9 | C=CC(=O)N1C2CCC1CN(c1ccc3ncnc(Nc4ccc(Oc5ccn6ncnc6c5)c(C)c4F)c3n1)C2 [Example 444] | 379 nM | 9 | 352 nM | 12 nM | 5.9 nM
10 | C=CC(=O)N1C2CC1CN(c1ccc3ncnc(Nc4cc(C)c(Oc5cnc6c(c5)ncn6C)cc4F)c3n1)C2 [Example 446] | ≥ 10000 nM | 19.4 | ≥ 5000 nM | 2560 nM | 28 nM
11 | C=CC(=O)N1CCN(c2ccc3ncnc(Nc4ccc(Oc5ccc6c(c5)ncn6C)c(C(F)F)c4)c3n2)CC1 [Example 447] | ≥ 10000 nM | 20.3 | ≥ 5000 nM | 29.2 nM | 17.5 nM
12 | C=CC(=O)N1CCN(c2ccc3ncnc(Nc4cc(Cl)c(Oc5cnc6c(c5)ncn6C)cc4F)c3n2)CC1(C)C [Example 452] | 1060 nM | 6.2 | ≥ 5000 nM | 452 nM | 12.8 nM
13 | C=CC(=O)N1CC2CCC(C1)N2c1ccc2ncnc(Nc3ccc(Oc4ccn5ncnc5c4)c(C)c3F)c2n1 [Example 455] | 87.3 nM | 9.6 | 193 nM | 4.1 nM | 4.8 nM
